Source: ChEMBL document CHEMBL1201862, “PubChem BioAssay data set” (2004)
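Grown in 96-well plates, cells were treated for 48 hours with each compound at five concentrations. Insufficient inhibition: endpoint recorded as highest concentration tested. At the GI50, growth is halved.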 Activity calls are given as the source filed them. Cut-off read from the data, not from the text of the source: active = GI50 up to about 1.1 µM and inactive = higher.

Tests used:
Assay in all cases: NCI tumour cell line growth inhibition, 48 h
SF-295 = tested on: SF-295
K562 = tested on: K562
NCI-H226 = tested on: NCI-H226
U-251 = tested on: U-251
SW-620 = tested on: SW-620
MDA-MB-435 = tested on: MDA-MB-435
CCRF-CEM = tested on: CCRF-CEM
UO-31 = tested on: UO-31
SF-268 = tested on: SF-268
Malme-3M = tested on: Malme-3M
HCT-116 = tested on: HCT-116
SK-MEL-5 = tested on: SK-MEL-5
HOP-62 = tested on: HOP-62
RXF 393 = tested on: RXF 393
M14 = tested on: M14
LOX IMVI = tested on: LOX IMVI
NCI-H522 = tested on: NCI-H522
Hs-578T = tested on: Hs-578T
COLO 205 = tested on: COLO 205
SNB-75 = tested on: SNB-75
ACHN = tested on: ACHN
HOP-92 = tested on: HOP-92
UACC-62 = tested on: UACC-62
SNB-19 = tested on: SNB-19
786-0 = tested on: 786-0
MOLT-4 = tested on: MOLT-4
HT-29 = tested on: HT-29
OVCAR-5 = tested on: OVCAR-5
SK-MEL-28 = tested on: SK-MEL-28
KM12 = tested on: KM12
EKVX = tested on: EKVX
T47D = tested on: T47D
IGROV-1 = tested on: IGROV-1
A498 = tested on: A498
MDA-MB-231 = tested on: MDA-MB-231
MDA-N = tested on: MDA-N
CAKI-1 = tested on: CAKI-1
OVCAR-8 = tested on: OVCAR-8
NCI/ADR-RES = tested on: NCI/ADR-RES
OVCAR-3 = tested on: OVCAR-3
PC-3 = tested on: PC-3
SK-OV-3 = tested on: SK-OV-3
DU-145 = tested on: DU-145
MCF7 = tested on: MCF7
BT-549 = tested on: BT-549
SF-539 = tested on: SF-539
NCI-H23 = tested on: NCI-H23
TK-10 = tested on: TK-10
HCT-15 = tested on: HCT-15
HL-60 = tested on: HL-60
SN12C = tested on: SN12C
SK-MEL-2 = tested on: SK-MEL-2
NCI-H460 = tested on: NCI-H460
OVCAR-4 = tested on: OVCAR-4
HCC 2998 = tested on: HCC 2998
A549 = tested on: A549
UACC-257 = tested on: UACC-257
SR = tested on: SR
RPMI-8226 = tested on: RPMI-8226

With `COc1ccc(OC)c2c(/C=C/c3ccc(N(C)C)cc3)ccnc12` the GI50 (SF-295) was > 10 µM (inactive), the GI50 (K562) was > 10 µM (inactive) and the GI50 (NCI-H226) was > 10 µM (inactive). The GI50 (U-251) was 5.31 µM (inactive), the GI50 (SW-620) was > 10 µM (inactive) and the GI50 (MDA-MB-435) was 5.21 µM (inactive). The GI50 (CCRF-CEM) was 2.48 µM (inactive), the GI50 (UO-31) was 4.67 µM (inactive) and the GI50 (SF-268) was > 10 µM (inactive). The GI50 (Malme-3M) was 4.51 µM (inactive), the GI50 (HCT-116) was 3.53 µM (inactive) and the GI50 (SK-MEL-5) was > 10 µM (inactive). The GI50 (HOP-62) was > 10 µM (inactive), the GI50 (RXF 393) was > 10 µM (inactive) and the GI50 (M14) was 7.36 µM (inactive). For the same molecule, the GI50 (LOX IMVI) was 2.94 µM (inactive), the GI50 (NCI-H522) was 8.02 µM (inactive) and the GI50 (Hs-578T) was 8.15 µM (inactive). For the same molecule, the GI50 (COLO 205) was > 10 µM (inactive), the GI50 (SNB-75) was 6.53 µM (inactive) and the GI50 (ACHN) was 4.68 µM (inactive). The GI50 (HOP-92) was 5.87 µM (inactive), the GI50 (UACC-62) was 3.01 µM (inactive) and the GI50 (SNB-19) was > 10 µM (inactive). For the same molecule, the GI50 (786-0) was 4.01 µM (inactive), the GI50 (MOLT-4) was 6.68 µM (inactive) and the GI50 (HT-29) was 4.11 µM (inactive). For the same molecule, the GI50 (OVCAR-5) was > 10 µM (inactive), the GI50 (SK-MEL-28) was 3.3 µM (inactive) and the GI50 (KM12) was > 10 µM (inactive). The GI50 (EKVX) was > 10 µM (inactive), the GI50 (T47D) was > 10 µM (inactive) and the GI50 (IGROV-1) was > 10 µM (inactive). For the same molecule, the GI50 (A498) was > 10 µM (inactive), the GI50 (MDA-MB-231) was 8.34 µM (inactive) and the GI50 (MDA-N) was 5.24 µM (inactive). For the same molecule, the GI50 (CAKI-1) was > 10 µM (inactive), the GI50 (OVCAR-8) was > 10 µM (inactive) and the GI50 (NCI/ADR-RES) was > 10 µM (inactive). The GI50 (OVCAR-3) was > 10 µM (inactive), the GI50 (PC-3) was > 10 µM (inactive) and the GI50 (SK-OV-3) was > 10 µM (inactive). For the same molecule, the GI50 (DU-145) was > 10 µM (inactive), the GI50 (MCF7) was 3.52 µM (inactive) and the GI50 (BT-549) was > 10 µM (inactive). For the same molecule, the GI50 (SF-539) was 2.77 µM (inactive), the GI50 (NCI-H23) was > 10 µM (inactive) and the GI50 (TK-10) was 5.58 µM (inactive). For the same molecule, the GI50 (HCT-15) was over 10 µM, the GI50 (HL-60) was 1.91 µM (inactive) and the GI50 (SN12C) was 8.05 µM (inactive). For the same molecule, the GI50 (SK-MEL-2) was > 10 µM (inactive), the GI50 (NCI-H460) was 9.68 µM (inactive) and the GI50 (OVCAR-4) was 4.32 µM (inactive). For the same molecule, the GI50 (HCC 2998) was > 10 µM (inactive), the GI50 (A549) was > 10 µM (inactive) and the GI50 (UACC-257) was 4 µM (inactive).

With `Cc1ccc(-n2cc(-c3ccc(Cl)cc3)c3c(N/N=C4\SCC(=O)N4C)ncnc32)cc1` the GI50 (SF-295) was 2.67 µM (inactive), the GI50 (K562) was 5 µM (inactive) and the GI50 (NCI-H226) was 7.35 µM (inactive). For the same molecule, the GI50 (U-251) was 6.71 µM (inactive), the GI50 (SW-620) was 16.3 µM (inactive) and the GI50 (MDA-MB-435) was 4.23 µM (inactive). For the same molecule, the GI50 (CCRF-CEM) was > 100 µM (inactive), the GI50 (UO-31) was 46.3 µM (inactive) and the GI50 (SF-268) was 7.05 µM (inactive). For the same molecule, the GI50 (Malme-3M) was 3.31 µM (inactive), the GI50 (HCT-116) was 4.59 µM (inactive) and the GI50 (SK-MEL-5) was 3.81 µM (inactive). For the same molecule, the GI50 (HOP-62) was 9.14 µM (inactive), the GI50 (RXF 393) was 7.18 µM (inactive) and the GI50 (M14) was 4.78 µM (inactive). For the same molecule, the GI50 (LOX IMVI) was 5.64 µM (inactive), the GI50 (NCI-H522) was 5.27 µM (inactive) and the GI50 (Hs-578T) was 3.59 µM (inactive). For the same molecule, the GI50 (COLO 205) was 4.09 µM (inactive), the GI50 (ACHN) was 7.36 µM (inactive) and the GI50 (HOP-92) was 2.62 µM (inactive). For the same molecule, the GI50 (UACC-62) was 3.44 µM (inactive), the GI50 (SNB-19) was 9.59 µM (inactive) and the GI50 (786-0) was 3.39 µM (inactive). The GI50 (MOLT-4) was 38.9 µM (inactive), the GI50 (SR) was 20.7 µM (inactive) and the GI50 (HT-29) was 12.3 µM (inactive). The GI50 (OVCAR-5) was 45.4 µM (inactive), the GI50 (SK-MEL-28) was 2.44 µM (inactive) and the GI50 (KM12) was 7.96 µM (inactive). The GI50 (RPMI-8226) was 12.9 µM (inactive), the GI50 (EKVX) was 18.3 µM (inactive) and the GI50 (T47D) was 91.4 µM (inactive). For the same molecule, the GI50 (IGROV-1) was 14.8 µM (inactive), the GI50 (A498) was 11.5 µM (inactive) and the GI50 (MDA-MB-231) was 4.99 µM (inactive). The GI50 (MDA-N) was 5.19 µM (inactive), the GI50 (CAKI-1) was 4.23 µM (inactive) and the GI50 (OVCAR-8) was 5.09 µM (inactive). For the same molecule, the GI50 (NCI/ADR-RES) was 6.65 µM (inactive), the GI50 (OVCAR-3) was 10.8 µM (inactive) and the GI50 (PC-3) was 2.72 µM (inactive). For the same molecule, the GI50 (SK-OV-3) was 2.54 µM (inactive), the GI50 (DU-145) was > 100 µM (inactive) and the GI50 (BT-549) was 15.6 µM (inactive). For the same molecule, the GI50 (SF-539) was 12 µM (inactive), the GI50 (NCI-H23) was 3.9 µM (inactive) and the GI50 (TK-10) was 2.64 µM (inactive). For the same molecule, the GI50 (HCT-15) was 59.3 µM, the GI50 (HL-60) was > 100 µM (inactive) and the GI50 (SN12C) was 5.6 µM (inactive). The GI50 (SK-MEL-2) was 2.48 µM (inactive), the GI50 (NCI-H460) was 4.31 µM (inactive) and the GI50 (OVCAR-4) was 2.48 µM (inactive). The GI50 (A549) was 4.72 µM (inactive) and the GI50 (UACC-257) was 4.66 µM (inactive).

For `CCOC(=O)c1cc(C2CCN(Cc3ccccc3)C2=O)c(C(=O)/C=C(/C)N)[nH]1` (stereo not given), the GI50 (SF-295) was 46.3 µM (inactive), the GI50 (K562) was > 100 µM (inactive) and the GI50 (U-251) was > 100 µM (inactive). For the same molecule, the GI50 (SW-620) was > 100 µM (inactive), the GI50 (MDA-MB-435) was > 100 µM (inactive) and the GI50 (UO-31) was 91.2 µM (inactive). The GI50 (SF-268) was > 100 µM (inactive), the GI50 (Malme-3M) was > 100 µM (inactive) and the GI50 (HCT-116) was 90.6 µM (inactive). For the same molecule, the GI50 (SK-MEL-5) was > 100 µM (inactive), the GI50 (HOP-62) was 30.5 µM (inactive) and the GI50 (RXF 393) was > 100 µM (inactive). The GI50 (M14) was > 100 µM (inactive), the GI50 (NCI-H522) was 57.3 µM (inactive) and the GI50 (Hs-578T) was 98.4 µM (inactive). For the same molecule, the GI50 (COLO 205) was > 100 µM (inactive), the GI50 (SNB-75) was > 100 µM (inactive) and the GI50 (ACHN) was > 100 µM (inactive). For the same molecule, the GI50 (HOP-92) was 25.8 µM (inactive), the GI50 (UACC-62) was > 100 µM (inactive) and the GI50 (SNB-19) was > 100 µM (inactive). For the same molecule, the GI50 (786-0) was 55.6 µM (inactive), the GI50 (MOLT-4) was > 100 µM (inactive) and the GI50 (HT-29) was > 100 µM (inactive). For the same molecule, the GI50 (OVCAR-5) was > 100 µM (inactive), the GI50 (SK-MEL-28) was > 100 µM (inactive) and the GI50 (KM12) was > 100 µM (inactive). For the same molecule, the GI50 (RPMI-8226) was > 100 µM (inactive), the GI50 (EKVX) was > 100 µM (inactive) and the GI50 (T47D) was > 100 µM (inactive). The GI50 (IGROV-1) was 67.5 µM (inactive), the GI50 (A498) was > 100 µM (inactive) and the GI50 (MDA-MB-231) was > 100 µM (inactive). For the same molecule, the GI50 (MDA-N) was > 100 µM (inactive), the GI50 (CAKI-1) was > 100 µM (inactive) and the GI50 (OVCAR-8) was 65.5 µM (inactive). For the same molecule, the GI50 (NCI/ADR-RES) was 72.1 µM (inactive), the GI50 (OVCAR-3) was 81.3 µM (inactive) and the GI50 (PC-3) was > 100 µM (inactive). For the same molecule, the GI50 (SK-OV-3) was 70.5 µM (inactive), the GI50 (DU-145) was > 100 µM (inactive) and the GI50 (MCF7) was 96.6 µM (inactive). For the same molecule, the GI50 (BT-549) was > 100 µM (inactive), the GI50 (NCI-H23) was > 100 µM (inactive) and the GI50 (TK-10) was > 100 µM (inactive). The GI50 (HCT-15) was over 100 µM, the GI50 (SK-MEL-2) was > 100 µM (inactive) and the GI50 (NCI-H460) was 85.5 µM (inactive). For the same molecule, the GI50 (OVCAR-4) was 72.9 µM (inactive), the GI50 (HCC 2998) was > 100 µM (inactive) and the GI50 (A549) was 73.6 µM (inactive). For the same molecule, the GI50 (UACC-257) was > 100 µM (inactive).
